# From patent US11590110B2, “Compositions and methods for reactivating latent immunodeficiency virus using a GSK-3 inhibitor” (priority 2017, dated 2023)
# Entries after “also recorded” stand apart in the source; their conditions may differ. Where two headings read alike, the source gives them in different places.
# Experiments:
# [1] = system: latent HIV-1 in blood CD4+ T cells from infected individuals on suppressive ART; assay type: cell-based
# [2] = system: latent HIV in CD4+ T cells from HIV-1-infected individuals on suppressive ART; test: Example 1: reactivation of latent HIV, viral mRNA in culture supernatant by ddPCR; conditions: 48 hours
# [3] = cited from earlier work
# [4] = system: AKT/mTOR pathway in CD4+ T cells; test: Example 5: phosphoproteomics (mass spectrometry) and GO enrichment analysis; assay type: cell-based, human; conditions: 1 μM; 15 minutes
# Experimental: Cells were lysed in a buffer containing 8M urea, 100 mM Tris pH 8.0, 150 mM NaCl, and protease inhibitors (Roche Complete tablet). Lysates were reduced with 4 mM TCEP for 30 minutes at room temperature and alkylated with 10 mM iodoacetamide for 30 minutes at room temperature in the dark. Samples were diluted 1:4 in 100 mM Tris pH 8.0 to reduce urea concentration to 2M and digested with trypsin (1:100 enzyme:substrate ratio) overnight at 37 degrees Celsius. Peptides were desalted with SepPak C 18 solid phase extraction (Waters) according the manufacturer's specifications and lyophilized to dryness. Phosphopeptides were purified using an immobilized metal affinity chromatography approach.
# Samples were analyzed on a Thermo Scientific LTQ Orbitrap Elite MS system equipped with an Easy nLC-1000 HPLC and autosampler system that is capable of maintaining back pressures of up to 10,000 psi for high resolution chromatographic separations. The HPLC interfaces with the MS system via a nanoelectrospray source.
# Samples were injected onto a C18 reverse phase capillary column (75 um inner diameter×25 cm length, packed with 1.9 um C18 particles). Peptides were then separated by an organic gradient from 5% to 30% ACN in 0.1% formic acid over 180 minutes at a flow rate of 300 nl/min. The MS continuously collected spectra in a data-dependent fashion over the entire gradient.
# Raw mass spectrometry data were analyzed using the MaxQuant software package (version 1.3.0.5). Data were matched to the SwissProt human reference sequence database. MaxQuant was configured to generate and search against a reverse sequence database for false discovery rate calculations. […] For MS/MS matching, a mass tolerance of 0.5 Da was allowed and the top 6 peaks per 100 Da were analyzed. […]
# The MaxQuant-analyzed data were subsequently analyzed using an in-house computational pipeline for statistical analysis of relative quantification with fixed and/or mixed effect models, implemented in the MSstats Bioconductor package (version 3.3.10). […]
# [5] = system: CD4+ T cells; test: Example 5: cytokines release assay (V-PLEX pro-inflammatory panel); assay type: cell-based, human; conditions: 48 hours; culture supernatant of CD4+ T cells
# Experimental: Supernatant was collected from the treated cell cultures described above and stored at −80° C. for later analysis. Supernatant cytokine levels were determined using a V-PLEX Proinflammatory Panel 1 (human) Kit (#K15049D-1) and a V-PLEX IL-17A Gen. B (human) (#K151WMD) from Meso Scale Discovery, following the manufacturer's protocol. The assay was done on undiluted supernatant samples in order to increase the sensitivity of the assay.
# [6] = system: HIV-specific CD8+ T cells; test: Example 5: granzyme B cytotoxicity assay and infected CD4+ T-cell elimination (ICE); assay type: cell-based, human; conditions: 1 μM for 6 days
# Experimental: PBMCs were co-incubated with HIVSF162-infected autologous CD4^+ T-cell targets (E:T 25:1)+/−tideglusib at a final concentration of […] in 96 deep (1 mL) well plates for 6 days. As before, cultured day 6 cells were then labeled with immuno-magnetic beads (CD8 T-cell Isolation Kit II, Miltenyi Biotec) prior to negative selection of CD8^+ T-cells by magnetic automated cell sorting (ref Migueles et al., 2008, 2009). Cytotoxic responses were measured against LIVE/DEAD Fixable Violet Stain (Molecular Probes, Invitrogen Detection Technologies, Eugene, Oreg., USA)-labeled HIVSF162-infected or uninfected autologous CD4^+ T-cell targets in assays examining GrB target cell activity and infected CD4^+ T-cell elimination (ICE) as previously reported (ref Migueles et al., 2008, 2009). Cells were analyzed on a FACSAria multi-laser cytometer (Becton-Dickinson) with FACSDiva software. Gates were drawn on labeled CD4^+ T-cell targets and 5,000-15,000 events were collected. Color compensations were performed using single-stained samples for each of the fluorochromes used. Data were analyzed using FlowJo software (TreeStar, San Carlos, Calif.).
# [7] = system: latent HIV in CD4+ T cells of HIV-infected patients on suppressive anti-retroviral therapy; test: Example 7: reversal of HIV latency in patient CD4+ T cells, extracellular viral RNA by digital droplet PCR
# [8] = system: patient-derived CD4+ T cells; test: Example 3: expression of activation markers CD69 and CD25 in patient-derived CD4+ T cells; assay type: cell-based, human; conditions: 48 hours; anti-CD3/CD28 beads = 100%
# Experimental: Following treatment with Tideglusib, the CD4^+ T cells were spun down and stained with antibodies for the activation markers CD69 and CD25. Briefly, cells were harvested 48 hours after Tideglusib treatment, incubated with the antibodies for 15 minutes at room temperature, than washed and fixed with 1% PFA for 30 minutes; then washed again and analyzed via flow cytometer.
structure (smiles),measurement,setting,value
"O=c1sn(-c2cccc3ccccc23)c(=O)n1Cc1ccccc1 [Tideglusib, 4-benzyl-2-(naphthalen-1-yl)-1,2,4-thiadiazolidine-3,5-dione]","release of virus-associated HIV-1 mRNA relative to bryostatin-1, by median values",[1]; 1 μM tideglusib vs 10 nM bryostatin-1,twofold more
same,"virus-associated HIV-1 mRNA, median value","[1]; 1 μM, 48 hours, relative to untreated control",10.3 fold
same,"induction of viral mRNA in culture supernatant, highest single donor","[2]; 1 μM, one donor",up to 60 fold
same,average increase in viral mRNA released into the culture supernatant compared to untreated control,"[2]; 1 μM, vs DMSO-treated cells",30 fold
same,reactivation of latent HIV from CD4+ T cells upon ex vivo treatment,[2],high level of reactivation; also recorded: even greater than that demonstrated with SB-216763
same,side effects / tolerability in humans,[3],"safe (i.e., non-toxic) and well tolerated in humans"
same,side effects / tolerability in humans,[3]; listed as tideglusib,very low incidence of side-effects
same,"moderate, asymptomatic and fully reversible increase of transaminase, share of cases",[3]; prolonged treatment,30%
same,GO enrichment analysis of treated vs untreated phosphoproteomics results,[4],"activation of TCR signaling (data not shown), together with overall spliceosome complex activity, transcription activation, mRNA processing and EGFR signaling"
same,phosphoproteomics: GSK-3β and TSC2,[4],confirmed inhibition of GSK-3β and TSC2
same,phosphoproteomics: Rictor,[4],revealed phosphorylation of Rictor on T1295
same,production and release of pro-inflammatory cytokines,[5],does not induce T cell activation or cytokine production
same,CD8+ T-mediated infected CD4+ T-cell elimination (ICE),[6]; 1 hour with infected CD4+ T targets,did not alter production of granzyme B (GrB) or prevent CD8^+ T-mediated infected CD4^+ T-cell elimination (ICE)
same,production of granzyme B (GrB),[6]; PBMCs of HIV-positive progressors,did not alter production of granzyme B
same,"latency reversing activity, in words",[7]; at equivalent doses,comparable activity
same,induction of latent virus production (virus-associated RNA over DMSO-treated control),[7]; highest concentration,~40 fold
same,subjects that did not respond,[7]; highest dose,1 of 8
same,activation markers CD69 and CD25 on the surface of CD4+ T cells,[8],not up-regulated
